In patent US20250333383A1, “N-OXIDE COMPOUNDS AND USE THEREOF” (SK BIOPHARMACEUTICALS CO., LTD., priority 2022, published 2025):

What was measured:
human Nav1.7 channels = molecular target: T1, human Nav1.7 channels (Homo sapiens, UniProt Q15858); experiment: hNav1.7 channel assay, whole cell patch clamp, two-pulse protocol; format: cell-based; details: TP2 (inactivated phase inhibition), HEK293 cells stably expressing human Nav1.7, read-out: Inhibition activity: percent inhibition on the inactivated state of hNav1.7
T1 construct: host or cells: HEK293
Source text: Whole cell patch clamp technique was used to investigate the inhibitory effects of the compound of Examples on human Nav1.7 channels, stably expressed in HEK293 cells. Human Nav1.7 recombinant cell line (CYL3011-precisION) was purchased from Eurofins.
Two-pulse protocol was used every 10 seconds to assess the state-dependent inhibition by Examples. From the holding potential of −90 mV, pre-pulse (200 ms at −120 mV) was followed by test pulse1 ([…]), then test pulse2 (TP2: 20 ms at 0 mV) was evoked after inter-pulse (20 ms at −100 mV).
Peak current amplitudes were measured for test pulses TP1 (resting phase inhibition) and TP2 (inactivated phase inhibition). The following solutions were used for screening assay: External (mM): 145 NaCl, 1 MgCl2, 1.8 CaCl2, 10 Hepes, 5 Glucose, pH 7.4, 300 mOsm; Internal (mM): 120 CsF, 10 NaCl, 10 EGTA, 10 HEPES, pH 7.2, 290 mOsm.
The inhibition on the inactivated state of hNav1.7 was calculated as: % inhibition (inactivation state)=(1−(ITP2, TA/ITP2, Control)×100%, where ITP2 (the inward peak Na+ currents), Control and ITP2, TA were elicited by the TP2 in control (vehicle only) and in the presence of a test article (TA) indicating Examples, respectively.

[1] = system: Rat Spinal Nerve Ligation Model; experiment: Rat Spinal Nerve Ligation (SNL, Chung) model, mechanical allodynia by von Frey filaments; format: in vivo; details: 30 mg/kg, p.o., PWT two hours after the treatment
Procedure: Rat Spinal Nerve Ligation Model
Analgesic efficacy was examined through the Spinal Nerve Ligation (SNL) model, also known as the Chung model (Kim and Chung, 1992). SNL model is one of the most frequently used animal models for the assessment of neuropathic pain behavior.
Briefly, the lumbar 5 spinal nerve is ligated with silk suture distal to the dorsal root ganglion. After two weeks of recovery, mechanical allodynia in the affected paw of animals was evaluated using von Frey filaments. Using the Dixons Up-Down method (Chaplan et al, 1994), a pre-drug baseline was taken with allodynia defined as a paw withdrawal threshold (PWT)<4 g. Test compounds (at 30 mg/kg) or vehicle were then orally administered, and PWT was determined two hours after the treatment. Statistical mean values of PWT for vehicle control and drug treatment groups were calculated, and the percent of maximum possible effect (% MPE) value was determined according to the following formula; % MPE=[(post-drug PWT−pre-drug PWT)/(cutoff PWT−pre-drug PWT)]×100.

T1 sequence (Q15858 whole entry): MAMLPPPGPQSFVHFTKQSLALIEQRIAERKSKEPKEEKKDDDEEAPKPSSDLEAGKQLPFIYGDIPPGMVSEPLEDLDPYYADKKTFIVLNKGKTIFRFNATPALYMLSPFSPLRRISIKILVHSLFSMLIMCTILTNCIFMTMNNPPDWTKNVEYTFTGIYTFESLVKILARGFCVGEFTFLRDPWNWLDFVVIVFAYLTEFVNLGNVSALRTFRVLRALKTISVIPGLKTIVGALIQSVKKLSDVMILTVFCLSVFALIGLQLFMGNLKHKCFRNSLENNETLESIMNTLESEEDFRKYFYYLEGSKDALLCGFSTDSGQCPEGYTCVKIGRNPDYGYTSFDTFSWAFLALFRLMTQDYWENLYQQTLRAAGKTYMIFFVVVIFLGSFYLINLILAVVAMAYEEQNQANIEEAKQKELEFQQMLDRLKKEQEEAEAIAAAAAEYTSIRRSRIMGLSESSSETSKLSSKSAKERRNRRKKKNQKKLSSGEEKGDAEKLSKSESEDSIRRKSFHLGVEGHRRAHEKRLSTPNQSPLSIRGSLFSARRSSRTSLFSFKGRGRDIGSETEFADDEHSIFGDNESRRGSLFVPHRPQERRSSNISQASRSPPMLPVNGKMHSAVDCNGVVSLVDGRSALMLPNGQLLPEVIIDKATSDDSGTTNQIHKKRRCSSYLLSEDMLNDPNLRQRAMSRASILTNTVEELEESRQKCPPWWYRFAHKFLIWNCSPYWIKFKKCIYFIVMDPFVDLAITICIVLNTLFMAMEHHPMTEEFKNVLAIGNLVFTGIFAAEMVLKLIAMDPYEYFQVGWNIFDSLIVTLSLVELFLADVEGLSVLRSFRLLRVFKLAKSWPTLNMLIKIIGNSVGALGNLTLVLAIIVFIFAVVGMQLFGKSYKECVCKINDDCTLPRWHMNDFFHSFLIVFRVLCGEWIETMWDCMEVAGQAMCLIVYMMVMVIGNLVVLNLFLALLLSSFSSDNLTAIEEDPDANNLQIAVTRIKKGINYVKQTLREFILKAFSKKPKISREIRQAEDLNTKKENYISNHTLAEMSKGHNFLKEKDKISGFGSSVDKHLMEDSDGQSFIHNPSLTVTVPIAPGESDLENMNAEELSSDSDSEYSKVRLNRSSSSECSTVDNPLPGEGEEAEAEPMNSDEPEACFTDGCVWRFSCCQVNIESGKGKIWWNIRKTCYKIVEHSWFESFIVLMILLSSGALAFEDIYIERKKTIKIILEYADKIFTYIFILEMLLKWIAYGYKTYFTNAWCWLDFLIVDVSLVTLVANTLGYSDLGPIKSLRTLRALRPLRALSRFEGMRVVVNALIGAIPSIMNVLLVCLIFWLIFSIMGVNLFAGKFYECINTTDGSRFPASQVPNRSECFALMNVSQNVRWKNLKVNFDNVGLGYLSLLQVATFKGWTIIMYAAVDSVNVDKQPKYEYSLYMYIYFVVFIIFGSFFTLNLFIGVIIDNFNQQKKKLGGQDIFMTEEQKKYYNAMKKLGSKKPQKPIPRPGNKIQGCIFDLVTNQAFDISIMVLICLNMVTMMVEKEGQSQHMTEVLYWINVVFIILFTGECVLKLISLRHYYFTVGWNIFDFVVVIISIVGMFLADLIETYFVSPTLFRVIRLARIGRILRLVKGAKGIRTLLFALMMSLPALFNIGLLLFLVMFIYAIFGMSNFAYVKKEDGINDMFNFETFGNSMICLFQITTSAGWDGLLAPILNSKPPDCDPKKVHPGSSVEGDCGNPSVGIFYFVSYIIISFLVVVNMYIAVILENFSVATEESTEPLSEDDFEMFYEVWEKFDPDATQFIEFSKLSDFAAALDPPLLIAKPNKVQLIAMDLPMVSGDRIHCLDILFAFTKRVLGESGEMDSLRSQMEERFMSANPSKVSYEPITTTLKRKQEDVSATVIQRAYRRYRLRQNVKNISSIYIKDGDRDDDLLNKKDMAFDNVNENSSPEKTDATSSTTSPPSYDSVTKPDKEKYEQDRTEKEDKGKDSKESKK

Row | inhibition at 10 µM (human Nav1.7 channels) [%] | SMILES | in vivo efficacy: % MPE [1]
1 | 40 to 70 | Cc1cc(-c2cccc(C(=O)NCc3cccc[n+]3[O-])c2)ccc1F [Example 22, 3-(4-fluoro-3-methyl-phenyl)-N-[(1-oxidopyridin-1-ium-2-yl)methyl]benzamide] | + (+: 10-40%,)
2 | 40 to 70 | O=C(NCc1cccc[n+]1[O-])c1cccc(-c2ccc(F)c(F)c2)c1 [Example 19, 3-(3,4-difluorophenyl)-N-[(1-oxidopyridin-1-ium-2-yl)methyl]benzamide] | ++ (++: 40-70%,)
3 | 40 to 70 | Cc1ccc(-c2cccc(C(=O)NCc3cccc[n+]3[O-])c2)cc1 [Example 14, N-[(1-oxidopyridin-1-ium-2-yl)methyl]-3-(p-tolyl)benzamide] | ++ (++: 40-70%,)
4 | 40 to 70 | O=C(NCc1cccc[n+]1[O-])c1cccc(-c2ccc(Cl)c(F)c2)c1 [Example 30, 3-(4-chloro-3-fluoro-phenyl)-N-[(1-oxidopyridin-1-ium-2-yl)methyl]benzamide] | 
5 | 70 to 100 | O=C(NCc1cccc[n+]1[O-])c1cccc(-c2ccc(Cl)cc2)c1 [Example 2, 3-(4-chlorophenyl)-N-[(1-oxidopyridin-1-ium-2-yl)methyl]benzamide] | +++ (+++: 70-100%)
6 | 40 to 70 | COc1cc(-c2cccc(C(=O)NCc3cccc[n+]3[O-])c2)ccc1Cl [Example 48, 3-(4-chloro-3-methoxy-phenyl)-N-[(1-oxidopyridin-1-ium-2-yl)methyl]benzamide] | 
7 | 40 to 70 | Cc1cc(Cl)ccc1-c1cccc(C(=O)NCc2cccc[n+]2[O-])c1 [Example 15, 3-(4-chloro-2-methyl-phenyl)-N-[(1-oxidopyridin-1-ium-2-yl)methyl]benzamide] | 
8 | 40 to 70 | O=C(NCc1cccc[n+]1[O-])c1cccc(-c2cc(Cl)cc(Cl)c2)c1 [Example 7, 3-(3,5-dichlorophenyl)-N-[(1-oxidopyridin-1-ium-2-yl)methyl]benzamide] | 
9 | 70 to 100 | COc1cc(-c2cccc(C(=O)NCc3cccc[n+]3[O-])c2)ccc1C(F)(F)F [Example 49, 3-[3-methoxy-4-(trifluoromethyl)phenyl]-N-[(1-oxidopyridin-1-ium-2-yl)methyl]benzamide] | 

Further lines, the molecule ahead of its results:

Row | SMILES | inhibition at 10 µM (human Nav1.7 channels) [%] | in vivo efficacy: % MPE [1]
10 | O=C(NCc1cccc[n+]1[O-])c1cc(-c2ccc(Cl)cc2)ccc1F [Example 51, 5-(4-chlorophenyl)-2-fluoro-N-[(1-oxidopyridin-1-ium-2-yl)methyl]benzamide] | 70 to 100 | +++ (+++: 70-100%)
11 | O=C(NCc1cccc[n+]1[O-])c1cccc(-c2ccc(OC(F)(F)F)cc2)c1 [Example 3, N-[(1-oxidopyridin-1-ium-2-yl)methyl]-3-[4-(trifluoromethoxy)phenyl]benzamide] | 70 to 100 | ++ (++: 40-70%,)
12 | O=C(NCc1cccc[n+]1[O-])c1cccc(-c2cccc(C(F)(F)F)c2)c1 [Example 5, N-[(1-oxidopyridin-1-ium-2-yl)methyl]-3-[3-(trifluoromethyl)phenyl]benzamide] | 40 to 70 | 
13 | O=C(NCc1cccc[n+]1[O-])c1cccc(-c2ccc(F)cc2)c1 [Example 18, 3-(4-fluorophenyl)-N-[(1-oxidopyridin-1-ium-2-yl)methyl]benzamide] | 40 to 70 | 
14 | O=C(NCc1cccc[n+]1[O-])c1cccc(-c2cccc(F)c2F)c1 [Example 34, 3-(2,3-difluorophenyl)-N-[(1-oxidopyridin-1-ium-2-yl)methyl]benzamide] | 10 to 40 | 
15 | COc1cc(Cl)ccc1-c1ccc(F)c(C(=O)NCc2cccc[n+]2[O-])c1 [Example 53, 5-(4-chloro-2-methoxy-phenyl)-2-fluoro-N-[(1-oxidopyridin-1-ium-2-yl)methyl]benzamide] | 70 to 100 | 
16 | O=C(NCc1cccc[n+]1[O-])c1cccc(-c2cccc(OC(F)(F)F)c2)c1 [Example 8, N-[(1-oxidopyridin-1-ium-2-yl)methyl]-3-[3-(trifluoromethoxy)phenyl]benzamide] | 40 to 70 | 
17 | O=C(NCc1cccc[n+]1[O-])c1cccc(-c2ccc(C(F)(F)F)cc2C(F)(F)F)c1 [Example 11, 3-[2,4-bis(trifluoromethyl)phenyl]-N-[(1-oxidopyridin-1-ium-2-yl)methyl]benzamide] | 70 to 100 | 
18 | O=C(NCc1cccc[n+]1[O-])c1cccc(-c2cc(F)cc(Cl)c2)c1 [Example 29, 3-(3-chloro-5-fluoro-phenyl)-N-[(1-oxidopyridin-1-ium-2-yl)methyl]benzamide] | 70 to 100 | 
19 | O=C(NCc1cccc[n+]1[O-])c1cccc(-c2cc(F)cc(F)c2)c1 [Example 32, 3-(3,5-difluorophenyl)-N-[(1-oxidopyridin-1-ium-2-yl)methyl]benzamide] | 70 to 100 | 
20 | COc1ccc(-c2cccc(C(=O)NCc3cccc[n+]3[O-])c2)c(C(F)(F)F)c1 [Example 50, 3-[4-methoxy-2-(trifluoromethyl)phenyl]-N-[(1-oxidopyridin-1-ium-2-yl)methyl]benzamide] | 40 to 70 | 
21 | COc1cc(-c2ccc(F)c(C(=O)NCc3cccc[n+]3[O-])c2)ccc1C(F)(F)F [Example 59, 2-fluoro-5-[3-methoxy-4-(trifluoromethyl)phenyl]-N-[(1-oxidopyridin-1-ium-2-yl)methyl]benzamide] | 70 to 100 | 
22 | CC(C)c1cccc(-c2cccc(C(=O)NCc3cccc[n+]3[O-])c2)c1 [Example 35, 3-(3-isopropylphenyl)-N-[(1-oxidopyridin-1-ium-2-yl)methyl]benzamide] | 70 to 100 | 
23 | O=C(NCc1cccc[n+]1[O-])c1cc(-c2cccc(Cl)c2)ccc1F [Example 52, 5-(3-chlorophenyl)-2-fluoro-N-[(1-oxidopyridin-1-ium-2-yl)methyl]benzamide] | 70 to 100 | 
24 | O=C(NCc1cccc[n+]1[O-])c1cccc(-c2ccccc2C(F)(F)F)c1 [Example 21, N-[(1-oxidopyridin-1-ium-2-yl)methyl]-3-[2-(trifluoromethyl)phenyl]benzamide] | 40 to 70 | 
25 | O=C(NCc1cccc[n+]1[O-])c1cccc(-c2ccc(C(F)(F)F)cc2)c1 [Example 1, N-[(1-oxidopyridin-1-ium-2-yl)methyl]-3-[4-(trifluoromethyl)phenyl]benzamide] | 70 to 100 | 
26 | O=C(NCc1cccc[n+]1[O-])c1cc(-c2ccc(Cl)cc2)ccc1Cl [Example 62, 2-chloro-5-(4-chlorophenyl)-N-[(1-oxidopyridin-1-ium-2-yl)methyl]benzamide] | 70 to 100 | 
27 | O=C(NCc1cccc[n+]1[O-])c1cc(-c2ccc(C(F)(F)F)c(F)c2)ccc1F [Example 60, 2-fluoro-5-[3-fluoro-4-(trifluoromethyl)phenyl]-N-[(1-oxidopyridin-1-ium-2-yl)methyl]benzamide] | 70 to 100 | 
28 | O=C(NCc1cccc[n+]1[O-])c1cccc(-c2ccccc2F)c1 [Example 25, 3-(2-fluorophenyl)-N-[(1-oxidopyridin-1-ium-2-yl)methyl]benzamide] | 70 to 100 | 
29 | COc1cc(-c2cccc(C(=O)NCc3cccc[n+]3[O-])c2)cc(C(F)(F)F)c1 [Example 45, 3-[3-methoxy-5-(trifluoromethyl)phenyl]-N-[(1-oxidopyridin-1-ium-2-yl)methyl]benzamide] | 10 to 40 | 
